Measurements: patent publication US9340537B2, “Benzamide derivatives for inhibiting the activity of ABL1, ABL2 and BCR-ABL1” (NOVATIS AG, priority 2012, dated 2016)

Columns and labels:
[1] = test system: Ba/F3-BCR-ABL1-WT cells; experiment: Proliferation assay Ba/F3-BCR-ABL1-WT cells; assay type: cell-based, murine; details: Mus musculus; 48 hours, Britelite luminescence; read-out: Ba/F3-BCR-ABL1-WT IC50
Description: (§1) The murine bone marrow-derived cell line Ba/F3 was used to generate the appropriate cell line models. […] These cells are referred to as Ba/F3-WT.
(§2) To generate Ba/F3 cells that depend on BCR-ABL1 expression for growth and survival, Ba/F3 cells were engineered to express BCR-ABL1 using retroviral transduction with a MSCV based retroviral vector containing a p210 BCR-ABL1expression cassette. […] These cells are referred to as Ba/F3-BCR-ABL-WT. […] These cells are referred to as Ba/F3-BCR-ABL-T315I.
(§3) Ba/F3-WT cells were maintained in RPMI1640 media with L-glutamine, HEPES (Lonza), 10% FBS (Gibco) and 5 ng/ml IL-3 (Calbiochem). Ba/F3-BCR-ABL1-WT cells and Ba/F3-BCR-ABL1-T315I cells were maintained in RPMI1640 media with L-glutamine, HEPES (Lonza) and 10% FBS (Gibco).
(§4) For each cell line, the cell density was adjusted to 50 000 cells/mL and 50 μL (2500 cells) added per well of a 384-well assay plate.
(§5) Test compounds were resuspended in DMSO at a concentration of 10 mM. A serial three-fold dilution of each compound with DMSO was performed in 384-well plates using the Janus Liquid Dispenser (PerkinElmer). Compound was delivered to the assay plates containing 2500 cells in a 50 μL volume via Acoustic delivery from an ATS-100 (EDC).
(§6) Cells were incubated at 37° C. in a humidified environment with 5% carbon dioxide for 48 hours. Britelite plus solution (Perkin Elmer) was prepared according to the manufacturer's instructions and 25 μL added to each well of the assay plate. […] The degree of luminescence correlates with the number of cells in each well. The effect of each inhibitor concentration can therefore be calculated and IC50 values generated.

[2] = target: T1, ABL1 (64-515) (Homo sapiens (Human), UniProt P00519); experiment: Radio ABL1 (64-515) radiometric filter-binding kinase assay; assay type: biochemical; details: 20 μM ATP
T1 sequence (P00519 64-515): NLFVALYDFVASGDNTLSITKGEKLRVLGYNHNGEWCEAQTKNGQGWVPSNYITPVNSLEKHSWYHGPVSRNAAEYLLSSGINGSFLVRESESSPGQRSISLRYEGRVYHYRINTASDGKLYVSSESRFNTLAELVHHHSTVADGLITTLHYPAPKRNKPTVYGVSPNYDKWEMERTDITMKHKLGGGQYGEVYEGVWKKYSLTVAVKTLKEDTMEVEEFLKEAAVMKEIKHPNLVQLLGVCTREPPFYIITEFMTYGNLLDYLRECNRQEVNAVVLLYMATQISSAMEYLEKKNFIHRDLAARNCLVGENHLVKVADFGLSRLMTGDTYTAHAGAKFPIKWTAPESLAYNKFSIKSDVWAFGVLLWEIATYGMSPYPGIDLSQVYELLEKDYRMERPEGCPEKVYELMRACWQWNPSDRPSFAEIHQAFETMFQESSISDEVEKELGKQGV
Protocol: Pre-incubation of enzyme with compounds (when stated) was performed by exposing the enzyme to compounds prior to addition of the substrate mixture (ATP and/or peptide substrate). […] Filter-plates were washed 3× with 0.5% H3PO4, followed by addition of 30 μL scintillation cocktail (Microscint, Perkin Elmer) per well and then analysed in a TopCount NXT scintillation counter (Perkin Elmer). Results were expressed as IC50 values.

[3] = test system: Ba/F3-BCR-ABL1-T315I cells; experiment: Proliferation assay Ba/F3-BCR-ABL1-T315I cells; assay type: cell-based, murine; details: Mus musculus; 48 hours, Britelite luminescence; read-out: Ba/F3-BCR-ABL1-T315I IC50
Description: as §1, §2, §3, §4, §5, §6

[4] = target: T1, ABL1 (64-515); experiment: Caliper ABL1 (64-515) microfluidic mobility shift kinase assay; details: read-out: Caliper ABL1 (64-515) IC50
[5] = test system: BCR-ABL1+KCL-22 cells; experiment: Acquired resistance in BCR-ABL1+KCL-22 cells in vitro; assay type: cell-based; details: single agent, cells treated every 3-4 days

Compound | IC50 [1] [nM] | IC50 [2] [nM] | IC50 [3] [nM] | IC50 [4] [nM] | time until acquired resistance [5] [days]
CC1(O)CN(c2ncc(C(=O)Nc3ccc(OC(F)(F)F)cc3)cc2-c2ncc[nH]2)C1 [Example 69, 6-(3-Hydroxy-3-methylazetidin-1-yl)-5-(1H-imidazol-2-yl)-N-(4-(trifluoromethoxy)phenyl)nicotinamide] | 24.3 | 0.2 | 395 | 0.2 | 
O=C(Nc1ccc(OC(F)(F)F)cc1)c1cnc(N2CC[C@@H](O)C2)c(-c2cncs2)c1 [Example 10, (R)-6-(3-Hydroxypyrrolidin-1-yl)-5-(thiazol-5-yl)-N-(4-(trifluoromethoxy)phenyl)nicotinamide] | 2.5 | 5.3 | 50 | 0.5 | 
N#Cc1ccc(-c2cc(C(=O)Nc3ccc(OC(F)(F)Cl)cc3)cnc2N2CC[C@@H](O)C2)[nH]1 [Example 45, (R)—N-(4-(Chlorodifluoromethoxy)phenyl)-5-(5-cyano-1H-pyrrol-2-yl)-6-(3-hydroxypyrrolidin-1-yl)nicotinamide] | 0.6 | 4 | 13 | 0.7 | 
O=C(Nc1ccc(OC(F)(F)F)cc1)c1cnc(N2CC[C@@H](O)C2)c(-c2ccc[nH]2)c1 [Example 6, (R)-6-(3-Hydroxypyrrolidin-1-yl)-5-(1H-pyrrol-2-yl)-N-(4-(trifluoromethoxy)phenyl)nicotinamide] | 4.5 | 9 | 106 | 1.3 | 
O=C(Nc1ccc(OC(F)(F)F)cc1)c1cnc(N2CC[C@@H](O)C2)c(-c2ccoc2)c1 [Example 7, (R)-5-(Furan-3-yl)-6-(3-hydroxypyrrolidin-1-yl)-N-(4-(trifluoromethoxy)phenyl)nicotinamide] | 5.9 | < 3 | 674 |  | 
Cc1cnc(-c2cc(C(=O)Nc3ccc(OC(F)(F)F)cc3)cnc2N2CC[C@@H](O)C2)[nH]1 [Example 72, (R)-6-(3-Hydroxypyrrolidin-1-yl)-5-(5-methyl-1H-imidazol-2-yl)-N-(4-(trifluoromethoxy)phenyl)nicotinamide] | 4.5 |  | 74 | 4.2 | 
O=C(Nc1ccc(OC(F)(F)Cl)cc1)c1cnc(N2CC[C@@H](O)C2)c(-c2ccc[nH]2)c1 [Example 22, (R)—N-(4-(Chlorodifluoromethoxy)phenyl)-6-(3-hydroxypyrrolidin-1-yl)-5-(1H-pyrrol-2-yl)nicotinamide] | 0.8 | 2.4 | 27 | < 0.13 | 
CN(C)C(=O)c1ccc(-c2cc(C(=O)Nc3ccc(OC(F)(F)Cl)cc3)cnc2N2CC[C@@H](O)C2)[nH]1 [Example 73, (R)—N-(4-(Chlorodifluoromethoxy)phenyl)-5-(5-(dimethylcarbamoyl)-1H-pyrrol-2-yl)-6-(3-hydroxypyrrolidin-1-yl)nicotinamide] | 0.4 |  | 7 | 1.1 | 
O=C(Nc1ccc(OC(F)(F)Cl)cc1)c1ccc(N2C[C@H](O)[C@@H](O)C2)c(-c2ccn[nH]2)c1 [Example 77, N-(4-(Chlorodifluoromethoxy)phenyl)-4-((3S,4S)-3,4-dihydroxypyrrolidin-1-yl)-3-(1H-pyrazol-5-yl)benzamide] | 4.1 |  | 75 | 0.7 | 
O=C(Nc1ccc(OC(F)(F)Cl)cc1)c1cnc(N2CC[C@@H](O)C2)c(-c2ncc[nH]2)c1 [Example 71, (R)—N-(4-(Chlorodifluoromethoxy)phenyl)-6-(3-hydroxypyrrolidin-1-yl)-5-(1H-imidazol-2-yl)nicotinamide] | 1.1 |  | 8 | 0.4 | 
O=C(Nc1ccc(OC(F)(F)Cl)cc1)c1cnc(N2C[C@H](O)[C@@H](F)C2)c(-c2ccn[nH]2)c1 (relative stereo) [Example 75, N-(4-(Chlorodifluoromethoxy)phenyl)-6-(trans-3-fluoro-4-hydroxypyrrolidin-1-yl)-5-(1H-pyrazol-5-yl)nicotinamide] | 1.2 | 3 | 17 | 0.5 | 
N#Cc1ccc(-c2cc(C(=O)Nc3ccc(OC(F)(F)F)cc3)cnc2N2CC[C@@H](O)C2)[nH]1 [Example 30, (R)-5-(5-Cyano-1H-pyrrol-2-yl)-6-(3-hydroxypyrrolidin-1-yl)-N-(4-(trifluoromethoxy)phenyl)nicotinamide] | 1.1 | 6 | 22 | 0.7 | 
O=C(Nc1ccc(OC(F)(F)Cl)cc1)c1cnc(N2CCCC3(CCN3)C2)c(-c2ccn[nH]2)c1 (stereo not drawn) [Example 61, N-(4-(Chlorodifluoromethoxy)phenyl)-5-(1H-pyrazol-5-yl)-6-(1,6-diazaspiro[3.5]nonan-6-yl)nicotinamide] | 49.3 | 3 | 1040 | 4.5 | 
Cc1cn(-c2cc(NC(=O)c3ccc(C)c(Nc4nccc(-c5cccnc5)n4)c3)cc(C(F)(F)F)c2)cn1 [nilotinib] |  |  |  |  | 18 to 21
O=C(Nc1ccc(OC(F)(F)F)cc1)c1cnc(N2CC[C@@H](O)C2)c(-c2ncc[nH]2)c1 [Example 70, (R)-6-(3-Hydroxypyrrolidin-1-yl)-5-(1H-imidazol-2-yl)-N-(4-(trifluoromethoxy)phenyl)nicotinamide] | 5.8 |  | 106 | 6.4 | 
